The IC50 is the concentration that inhibits the measured activity by half.

Structures are written as SMILES. The source made the active and inactive calls.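 Rule for the calls: active = compounds whose fitted half-maximal concentration in the cell-protection dose series is at or below a set limit; inactive = the rest.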

This passage reports IC50 results from PubChem BioAssay AID588780 (Sanford-Burnham Center for Chemical Genomics, 2011).

This experiment deals with H9c2 cardiomyocytes, 2-deoxyglucose stress, ATP luminescence, 2 h. Put plainly: protection of cardiomyocytes from 2-deoxyglucose injury, dose response, cell-based, 2-deoxyglucose stress, uHTS hits (AID 588780).
For the compound `COc1ccc(N/C=C(\C#N)c2nc3ccccc3n2C)c(OC)c1`, the IC50 is > 79 µM (inactive). In the case of `O=C(c1ccccc1)c1ccc2nc(N3CCN(C(=O)c4ccco4)CC3)c3nncn3c2c1`, the IC50 was 14.9 µM. For the compound `Cc1ccc(NC(=O)CCc2nc3ccccc3c(=O)[nH]2)cc1S(=O)(=O)N1CCOCC1`, the IC50 is > 79 µM (inactive). With `COc1cc(-c2cc(NC=O)c3ncc(-c4ccc(C(C)=O)cc4)n3c2)ccc1O`, the IC50 is > 79 µM (inactive). The result for `NC(=O)c1ccccc1OCC(=O)Nc1cccnc1Cl` reads > 79 µM (inactive); that for `O=C(CCc1nc2ccccc2c(=O)[nH]1)Nc1ccc(F)cc1`, 27.6 µM; that for `CNC(=O)c1ccc(-c2sc3nc(N4CCOCC4)c4c(c3c2N)CC(C)(C)OC4)o1`, 13.2 µM. Regarding `c1ccc(-c2nn3c(-c4ccco4)nnc3s2)nc1`, the IC50 was 43.9 µM (inactive). The result for `CC(OC(=O)Cn1[nH]c(=O)c2ccccc2c1=O)C(=O)Nc1cccc(Cl)c1` (centres undefined) reads > 79 µM (inactive); that for `O=C(N/N=C/c1ccccn1)c1cc(-c2ccncc2)nc2ccccc12`, > 79 µM (inactive); that for `Cc1[nH]c2ccccc2c1/C=N/NC(=O)c1cc(-c2cccs2)[nH]n1`, > 79 µM (inactive).

`CC(=O)Nc1cc(-c2cccc(NS(C)(=O)=O)c2)cn2c(-c3cccc(C(C)=O)c3)cnc12`: the IC50 is > 79 µM (inactive). To `CCOC(=O)CSc1nnc(CSc2nc3sc4c(c3c(=O)[nH]2)CCC4)n1C` belongs > 79 µM (inactive); to `O=C(CNC(=O)c1nc[nH]c1C(=O)NCC(=O)OCc1ccccc1)OCc1ccccc1`, 39.5 µM (inactive); to `Nc1nc(-c2c[nH]c3ccccc23)cs1`, > 79 µM (inactive). The result for `CC1CCN(C(=O)COC(=O)c2n[nH]c(=O)c3ccccc23)CC1` reads 47.8 µM (inactive); that for `NC(=O)c1nsc(C(=O)N(CCc2ccccc2)C(C(=O)NC2CCCC2)c2ccco2)c1N` (centres undefined), 22.4 µM. Regarding `N#CCCSc1ccccc1NC(=O)c1cc(=O)c2ccccc2o1`, the IC50 is > 79 µM (inactive). Regarding `CC(C)(C)OC(=O)NCCCCCNC(=O)c1[nH]cnc1C(=O)Nc1ccc(Cl)cc1`, the IC50 is > 79 µM (inactive). The result for `Cn1c2c(c(=O)n(C)c1=O)C(c1cccc([N+](=O)[O-])c1)Nc1ccccc1O2` (centres undefined) reads > 79 µM (inactive); that for `O=C(COC(=O)CCc1nc2ccccc2c(=O)[nH]1)NCc1ccc(F)cc1`, > 79 µM (inactive); that for `COc1ccc(C(C(=O)NC2CCCCC2)N(Cc2cccs2)C(=O)Cc2c[nH]c3ccccc23)cc1OC` (centres undefined), 12.5 µM.

`CCOC(=O)c1cnc(Nc2nc3ccccc3o2)nc1CSc1nnc(C)s1`: the IC50 is > 79 µM (inactive). Take `COC(=O)c1ccc(C(=O)OC)c(NC(=O)COC(=O)C23CC4CC(CC(O)(C4)C2)C3)c1`: the IC50 is 9.67 µM.

Turning to `CC(=O)c1ccc(N2CCN(C(=O)c3cc(-c4cccnc4)nc4ccc(Br)cc34)CC2)cc1`, the IC50 was 11 µM. As to `Cn1c2ccccc2c2cc(/C=N/NC(=O)c3cc(O)ccc3O)ccc21`, the IC50 is > 79 µM (inactive). To `O=C(N/N=C/c1c(O)n(-c2ccccc2Cl)c(=O)c2ccccc12)C1COc2ccccc2O1` (centres undefined) belongs 16.2 µM. The result for `NC(=O)c1ccccc1OCC(=O)NC12CC3CC(CC(C3)C1)C2` reads > 79 µM (inactive); that for `Cc1c(/C=N/NC(=O)c2ccc(O)cc2)c2ccccn2c1C(=O)c1ccc(F)cc1`, > 79 µM (inactive).

For the compound `Cc1ccc(N(CCC#N)C(=O)CSc2nc3ccccc3c(=O)[nH]2)cc1`, the IC50 was > 79 µM (inactive). The result for `CCOC(=O)C1=c2s/c(=C\c3ccncc3)c(=O)n2C(N)=C(C(=O)OC)C1c1ccncc1` (centres undefined) reads > 79 µM (inactive); that for `Cn1c(=O)[nH]c(=O)c2c1nc(N(CCO)Cc1ccccc1)n2CCCc1ccccc1`, > 79 µM (inactive). The result for `CCC(c1nnnn1Cc1ccco1)N(Cc1cc2cc(C)cc(C)c2[nH]c1=O)CC1CCCO1` (centres undefined) reads > 79 µM (inactive). The result for `O=C(N/N=C/c1ccccn1)c1ccc(NC(=O)c2cccc([N+](=O)[O-])c2)cc1` reads 11.5 µM; that for `NS(=O)(=O)c1ccc(CCNc2ccn3nc(-c4ccc(OCCN5CCOCC5)cc4)cc3n2)cc1`, 37.3 µM (inactive); that for `COc1ccc(CCn2c(=O)c3cccnc3n(Cc3ccc([N+](=O)[O-])cc3)c2=O)cc1OC`, 10.1 µM.

Take `O=C(Nc1cccc(Cl)c1)c1nc[nH]c1C(=O)NCCCCNC(=O)c1[nH]cnc1C(=O)Nc1cccc(Cl)c1`: the IC50 is > 79 µM (inactive). The result for `COc1ccc(N(CC(=O)N/N=C/c2cccs2)S(=O)(=O)c2ccc(OC)c(OC)c2)cc1` reads 27.8 µM; that for `Cc1ccc2nc(SCc3nc4ccccc4c(=O)[nH]3)[nH]c2c1`, > 79 µM (inactive); that for `CC(=C/c1ccc(C(C)C)cc1)/C=N/NC(=O)c1ccncc1`, > 79 µM (inactive). The result for `COc1ccc(C(=O)Nc2cccc(NC(=O)c3ccc(OC)c(OC)c3)n2)cc1OC` reads > 79 µM (inactive); that for `O=[N+]([O-])c1ccc(-c2nc(Nc3ccc(O)cc3)c3ccccc3n2)cc1`, > 79 µM (inactive). To `CC(=O)Nc1ccc2c(c1)[nH]c(=O)c1ccccc12` belongs 76.5 µM (inactive); to `O=C(N/N=C/c1ccccn1)c1cccc([N+](=O)[O-])c1`, > 79 µM (inactive); to `CC1CCCN(Cc2nc3c(c(=O)n(C)c(=O)n3C)n2CCCc2ccccc2)C1` (centres undefined), 35 µM (inactive). Turning to `CC(=O)Nc1cccc(NC(=O)CSc2ccc(-c3ccccn3)nn2)c1`, the IC50 was > 79 µM (inactive).

For the compound `O=C(CCc1nc2ccccc2c(=O)[nH]1)OCC(=O)N1CCc2ccccc21`, the IC50 is > 79 µM (inactive). The result for `Cc1cc(-c2nn3c(-c4ccccc4)nnc3s2)c2ccccc2n1` reads > 79 µM (inactive); that for `COc1ccc(CCNC(=O)c2cc3c(C)nccc3[nH]c2=O)cc1OC`, 16.3 µM; that for `O=C(CCc1nc2ccccc2c(=O)[nH]1)Nc1nc(-c2cccs2)cs1`, > 79 µM (inactive).

With `CCOC(=O)c1c(NC(=O)COC(=O)c2ccc(O)cc2)sc(C(=O)N(C)C)c1C`, the IC50 was > 79 µM (inactive).

For the compound `Clc1nc2sccn2c1/C=N/n1cnc2ccccc21`, the IC50 is > 79 µM (inactive). The result for `CC(=O)Nc1cccc(/C(C)=N/NC(=O)c2cccs2)c1` reads > 79 µM (inactive); that for `Cc1c(C(=O)NCC2COc3ccccc3O2)oc2ccc(S(=O)(=O)N3CCOCC3)cc12` (centres undefined), > 79 µM (inactive). To `O=C(/C=C/c1ccc(Cl)c([N+](=O)[O-])c1)Nc1cccnc1` belongs > 79 µM (inactive); to `C[C@@H](NC(=O)c1nc[nH]c1C(=O)NCC(=O)OCc1ccccc1)c1ccccc1`, > 79 µM (inactive); to `Cc1ncc(CO)c2c1Oc1nc(-c3ccccc3)nc(SCC(=O)N3CCCCC3)c1C2`, > 79 µM (inactive).

For `c1ccc(CN2CCN(CCCNc3ccc4nnc(-c5ccccc5)n4n3)CC2)cc1`, the IC50 is 13.8 µM. The result for `CCOC(=O)c1nc(Nc2ccc(C(=O)OC)cc2)c2ccccc2n1` reads > 79 µM (inactive); that for `c1ccc2c(c1)nc(Nc1ccc3c(c1)OCO3)c1nnnn12`, 16.9 µM. The result for `COc1ccc2nc(Nc3nc(CSc4nc5ccccc5[nH]4)cc(=O)[nH]3)nc(C)c2c1` reads > 79 µM (inactive); that for `COc1cc(-c2nnc(-c3cc(OC)c(OC)c(OC)c3)o2)cc(OC)c1OC`, > 79 µM (inactive); that for `CC(=O)Nc1cc(C)nn1-c1nc2ccccc2s1`, 18 µM. Consider `CCOC(=O)c1[nH]c2cc(OC)c(OC)cc2c1NC(=O)C(C)N1CCN(Cc2ccccc2)CC1` (centres undefined), for which the IC50 is > 79 µM (inactive). For `N#CCCN(C(=O)COC(=O)CCc1nc2ccccc2c(=O)[nH]1)c1ccc(F)cc1`, the IC50 was > 79 µM (inactive). To `O=C(CSc1ccc2nnc(-c3ccc(F)cc3)n2n1)N1CCCc2ccccc21` belongs 13.4 µM; to `c1ccc(-c2cc(-c3nnc4sc(-c5ccccn5)nn34)[nH]n2)cc1`, > 79 µM (inactive). As to `COc1cccc(OC)c1-c1nn2c(-c3ccco3)nnc2s1`, the IC50 was > 79 µM (inactive). The result for `CCOC(=O)c1cnc2ccc(C(=O)OC)cc2c1NCCc1ccc(OC)c(OC)c1` reads > 79 µM (inactive). The result for `COc1cccc(-c2nnc(NC(=O)c3ccc(Cl)s3)o2)c1` reads > 79 µM (inactive); that for `CCN1C(=O)/C(=C/c2nc3ccccc3c(=O)[nH]2)c2ccccc21`, > 79 µM (inactive); that for `O=C(Cn1[nH]c(=O)c2ccccc2c1=O)NNC(=O)c1ccccc1`, 9.4 µM. To `CC(=O)c1ccc(-c2cnc3c(NC=O)cc(-c4cccc(C(=O)N(C)C)c4)cn23)cc1` belongs 14 µM; to `CCCc1cc(N2CCN(C(=O)c3ccco3)CC2)n2c(nc3ccccc32)c1C#N`, 21.4 µM; to `COc1cc(-c2cc(NC(C)=O)c3ncc(-c4ccc(F)cc4)n3c2)cc(OC)c1OC`, > 79 µM (inactive).

With `COc1ccccc1-c1cc(NC=O)c2ncc(-c3cccc(C(C)=O)c3)n2c1`, the IC50 is > 79 µM (inactive). To `COc1cc(/C=C(\C#N)c2nc3ccc(C)cc3[nH]2)c([N+](=O)[O-])cc1OC` belongs 18 µM; to `O=C(NCc1n[nH]c(=O)c2ccccc12)C1CC(=O)N(c2ccccc2)C1` (centres undefined), 43 µM (inactive); to `COc1c(C)cc(Br)cc1C(=O)Nc1cccc(-c2nc3ncccc3o2)c1`, > 79 µM (inactive).

Take `Cc1cc(C)nc(SCc2ccc(C(=O)N/N=C/c3ccccn3)cc2)n1`: the IC50 was > 79 µM (inactive).

As for `CC(C)NC(=O)COC(=O)Cn1[nH]c(=O)c2ccccc2c1=O`, the IC50 was > 79 µM (inactive). The result for `O=c1[nH]c(-c2cccnc2)nc2ccccc12` reads > 79 µM (inactive); that for `COc1ccccc1NS(=O)(=O)c1cc(NC(=O)CCc2nc3ccccc3c(=O)[nH]2)ccc1C`, 11.4 µM; that for `O=C(CCc1nc2ccccc2c(=O)[nH]1)OCc1nnc(-c2ccccc2)o1`, > 79 µM (inactive).
